Experimental data from ChEMBL document CHEMBL1139387, “Fragment-based discovery of the pyrazol-4-yl urea (AT9283), a multitargeted kinase inhibitor with potent aurora kinase activity” (J Med Chem, 2009).
Values after ≈ are worked out from the molar mass of the structure shown.

Key:
[1] = molecular target: T1, Aurora kinase A (Homo sapiens, UniProt O14965)
T1 sequence (O14965 whole entry): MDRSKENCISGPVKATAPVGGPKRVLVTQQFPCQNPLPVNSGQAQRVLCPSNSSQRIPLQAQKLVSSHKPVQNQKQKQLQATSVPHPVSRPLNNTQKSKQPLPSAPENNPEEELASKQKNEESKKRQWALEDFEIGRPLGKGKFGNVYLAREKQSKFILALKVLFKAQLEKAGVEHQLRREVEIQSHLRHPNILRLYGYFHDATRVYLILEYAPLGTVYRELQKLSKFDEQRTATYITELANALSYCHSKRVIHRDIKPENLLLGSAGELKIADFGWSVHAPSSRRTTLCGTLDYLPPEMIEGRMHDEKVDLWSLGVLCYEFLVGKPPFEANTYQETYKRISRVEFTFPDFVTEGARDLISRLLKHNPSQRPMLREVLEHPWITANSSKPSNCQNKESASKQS

[2] = molecular target: Cyclin-dependent kinase 1/cyclin B1 (Homo sapiens, UniProt P06493); experiment: Inhibition of CDK1/Cyclin B; assay type: protein-complex assay
[3] = molecular target: Aurora kinase B (Homo sapiens, UniProt Q96GD4); experiment: Inhibition of Aurora B
[4] = molecular target: Cyclin-dependent kinase 2 (Homo sapiens, UniProt P24941); experiment: Inhibition of CDK2/Cyclin A
[5] = test system: HCT-116; experiment: Cytotoxicity against human HCT116 cells assessed as distinct polyploidy phenotype after 72 hrs; assay type: functional
[6] = molecular target: Tyrosine-protein kinase Yes (Homo sapiens, UniProt P07947); experiment: Inhibition of Yes
[7] = Half life in human HCT116 cells xenografted BALB/c mouse tumor at 10 mg/kg, iv; assay type: ADME, organism-based, HCT-116; parameters: dose 10 mg/kg, route intravenous
[8] = Volume of distribution at steady state in BALB/c mouse bearing human HCT116 cells at 5 mg/kg, iv; assay type: ADME, organism-based, HCT-116; parameters: dose 5 mg/kg, route intravenous; conditions: in vivo, read-out: Vdss
[9] = molecular target: Cytochrome P450 2C19 (Homo sapiens, UniProt P33261); experiment: Inhibition of CYP2C19; assay type: ADME
[10] = molecular target: Cytochrome P450 2C9 (Homo sapiens, UniProt P11712); experiment: Inhibition of CYP2C9; assay type: ADME
[11] = molecular target: T2, Serine/threonine-protein kinase 17A (Homo sapiens, UniProt Q9UEE5); experiment: Inhibition of DRAK1
T2 sequence (Q9UEE5 whole entry): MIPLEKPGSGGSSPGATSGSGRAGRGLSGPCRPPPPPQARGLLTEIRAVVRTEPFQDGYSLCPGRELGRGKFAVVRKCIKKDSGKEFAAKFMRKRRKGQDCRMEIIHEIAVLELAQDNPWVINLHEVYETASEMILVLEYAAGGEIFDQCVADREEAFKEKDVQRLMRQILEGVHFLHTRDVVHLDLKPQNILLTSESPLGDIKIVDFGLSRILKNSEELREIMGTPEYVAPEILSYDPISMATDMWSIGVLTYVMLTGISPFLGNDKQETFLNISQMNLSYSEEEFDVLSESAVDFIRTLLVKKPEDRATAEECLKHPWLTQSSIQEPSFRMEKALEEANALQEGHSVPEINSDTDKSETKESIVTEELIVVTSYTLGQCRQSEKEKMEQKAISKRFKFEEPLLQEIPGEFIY

[12] = Lipophilicity, log D at pH 7.4; assay type: physicochemical; conditions: buffer
[13] = Solubility at pH 5.5; assay type: physicochemical; conditions: buffer
[14] = Solubility at pH 7.0; assay type: physicochemical; conditions: buffer
[15] = Oral bioavailability in BALB/c mouse bearing human HCT116 cells at 10 mg/kg; assay type: ADME, organism-based, HCT-116; conditions: in vivo
[16] = Cmax in BALB/c mouse bearing human HCT116 cells at 10 mg/kg, po; assay type: ADME, organism-based, HCT-116; parameters: dose 10 mg/kg, route oral; conditions: in vivo
[17] = AUC (0 to t) in BALB/c mouse bearing human HCT116 cells at 20 mg/kg, ip; assay type: ADME, organism-based, HCT-116; parameters: dose 20 mg/kg, route intraperitoneal; conditions: in vivo
[18] = molecular target: Cytochrome P450 2D6 (Homo sapiens, UniProt P10635); experiment: Inhibition of CYP2D6; assay type: ADME
[19] = AUC (0 to t) in BALB/c mouse bearing human HCT116 cells at 10 mg/kg, po; assay type: ADME, organism-based, HCT-116; parameters: dose 10 mg/kg, route oral; conditions: in vivo
[20] = molecular target: Glycogen synthase kinase-3 beta (Homo sapiens, UniProt P49841); experiment: Inhibition of GSK3-beta
[21] = AUC (0 to t) in BALB/c mouse bearing human HCT116 cells at 5 mg/kg, iv; assay type: ADME, organism-based, HCT-116; parameters: dose 5 mg/kg, route intravenous; conditions: in vivo
[22] = Cmax in BALB/c mouse bearing human HCT116 cells at 20 mg/kg, ip; assay type: ADME, organism-based, HCT-116; parameters: dose 20 mg/kg, route intraperitoneal; conditions: in vivo
[23] = Half life in BALB/c mouse plasma bearing human HCT116 cells at 5 mg/kg, iv; assay type: ADME, organism-based, HCT-116; parameters: dose 5 mg/kg, route intravenous
[24] = Cmax in BALB/c mouse bearing human HCT116 cells at 5 mg/kg, iv; assay type: ADME, organism-based, HCT-116; parameters: dose 5 mg/kg, route intravenous; conditions: in vivo
[25] = molecular target: T3, Cytochrome P450 1A2 (Homo sapiens, UniProt P05177); experiment: Inhibition of CYP1A2; assay type: ADME
T3 sequence (P05177 whole entry): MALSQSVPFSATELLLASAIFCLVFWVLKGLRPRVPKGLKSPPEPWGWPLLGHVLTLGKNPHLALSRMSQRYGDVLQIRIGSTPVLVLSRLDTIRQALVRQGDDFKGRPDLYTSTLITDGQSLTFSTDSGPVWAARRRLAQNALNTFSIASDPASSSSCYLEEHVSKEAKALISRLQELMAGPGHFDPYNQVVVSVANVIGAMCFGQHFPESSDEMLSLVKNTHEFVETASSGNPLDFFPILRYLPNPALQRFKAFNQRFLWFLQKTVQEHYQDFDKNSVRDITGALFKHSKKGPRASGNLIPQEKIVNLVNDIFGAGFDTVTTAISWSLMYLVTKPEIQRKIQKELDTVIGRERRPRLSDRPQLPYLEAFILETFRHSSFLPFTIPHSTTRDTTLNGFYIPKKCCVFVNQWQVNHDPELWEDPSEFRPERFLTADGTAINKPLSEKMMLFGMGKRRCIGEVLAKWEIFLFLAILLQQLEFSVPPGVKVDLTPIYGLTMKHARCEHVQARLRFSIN

[26] = test system: HCT-116; experiment: Cytotoxicity against human HCT116 cells assessed as number of colonies after 10 to 14 days by colony forming assay; assay type: functional, cell-based
[27] = Bioavailability in BALB/c mouse bearing human HCT116 cells at 20 mg/kg, ip; assay type: ADME, organism-based, HCT-116; conditions: in vivo
[28] = Clearance in BALB/c mouse bearing human HCT116 cells at 5 mg/kg, iv; assay type: ADME, organism-based, HCT-116; parameters: dose 5 mg/kg, route intravenous; conditions: in vivo, read-out: MLC
[29] = molecular target: Vascular endothelial growth factor receptor 3 (Homo sapiens, UniProt P35916); experiment: Inhibition of VEGFR3
[30] = in vitro; conditions: mouse, plasma
[31] = Oral bioavailability in mouse; assay type: ADME, organism-based; conditions: in vivo
[32] = Plasma concentration in mouse assessed per kg body weight; assay type: ADME, organism-based
[33] = test system: HCT-116; experiment: Antitumor activity against human HCT116 cells xenografted in BALB/c mouse at 15 mg/kg, ip after 16 days relative to control; assay type: functional; conditions: route intraperitoneal
[34] = test system: Mus musculus; experiment: Toxicity in BALB/c mouse bearing human HCT116 cells assessed as body weight at 15 mg/kg, ip relative to starting weight; assay type: organism-based, HCT-116; parameters: dose 15 mg/kg, route intraperitoneal; conditions: in vivo
[35] = test system: HCT-116; experiment: Antitumor activity against human HCT116 cells xenografted in BALB/c mouse at 20 mg/kg, ip after 16 days relative to control; assay type: functional; conditions: route intraperitoneal
[36] = test system: Mus musculus; experiment: Toxicity in BALB/c mouse bearing human HCT116 cells assessed as body weight at 20 mg/kg, ip relative to starting weight; assay type: organism-based, HCT-116; parameters: dose 20 mg/kg, route intraperitoneal; conditions: in vivo
[37] = molecular target: Cyclin-dependent kinase 1/cyclin B1 (Homo sapiens) (UniProt P06493+P14635); conditions: 1000 uM
Sequence of Cyclin-dependent kinase 1/cyclin B1 (Homo sapiens) (P06493 whole entry, looked up): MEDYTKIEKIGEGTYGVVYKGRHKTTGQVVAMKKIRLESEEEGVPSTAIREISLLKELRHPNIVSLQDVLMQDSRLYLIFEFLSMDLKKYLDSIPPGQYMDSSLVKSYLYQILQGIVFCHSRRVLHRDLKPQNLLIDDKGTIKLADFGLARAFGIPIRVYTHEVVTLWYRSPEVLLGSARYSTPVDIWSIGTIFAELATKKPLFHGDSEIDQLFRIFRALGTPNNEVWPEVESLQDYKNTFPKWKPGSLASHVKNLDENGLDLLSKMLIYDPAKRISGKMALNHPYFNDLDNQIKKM
Sequence of Cyclin-dependent kinase 1/cyclin B1 (Homo sapiens) (P14635 whole entry, looked up): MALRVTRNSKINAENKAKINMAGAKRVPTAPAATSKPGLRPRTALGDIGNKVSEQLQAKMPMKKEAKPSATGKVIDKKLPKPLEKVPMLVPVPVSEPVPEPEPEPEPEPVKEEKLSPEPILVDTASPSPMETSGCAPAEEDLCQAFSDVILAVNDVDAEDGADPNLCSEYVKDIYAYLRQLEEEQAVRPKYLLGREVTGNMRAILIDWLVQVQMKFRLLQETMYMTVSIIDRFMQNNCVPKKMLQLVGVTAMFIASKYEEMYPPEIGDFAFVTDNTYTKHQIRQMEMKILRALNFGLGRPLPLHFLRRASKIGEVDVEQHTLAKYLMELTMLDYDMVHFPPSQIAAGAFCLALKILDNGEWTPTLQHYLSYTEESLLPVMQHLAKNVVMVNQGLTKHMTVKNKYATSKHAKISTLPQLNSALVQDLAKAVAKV

Sequence of Aurora kinase B (Q96GD4 whole entry): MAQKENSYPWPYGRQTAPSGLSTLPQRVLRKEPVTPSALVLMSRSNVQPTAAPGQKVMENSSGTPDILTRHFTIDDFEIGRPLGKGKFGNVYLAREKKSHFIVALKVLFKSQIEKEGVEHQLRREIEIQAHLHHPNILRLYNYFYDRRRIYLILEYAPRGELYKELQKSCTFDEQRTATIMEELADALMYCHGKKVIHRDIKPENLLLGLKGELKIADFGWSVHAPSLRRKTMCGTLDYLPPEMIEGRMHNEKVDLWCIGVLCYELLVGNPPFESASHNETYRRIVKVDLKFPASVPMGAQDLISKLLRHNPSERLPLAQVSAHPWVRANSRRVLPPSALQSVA
Sequence of Cyclin-dependent kinase 1/cyclin B1 (P06493 whole entry): as the sequence (P06493 whole entry, looked up) above
Sequence of Cyclin-dependent kinase 1/cyclin B1 (P14635 whole entry, further chain): as the sequence (P14635 whole entry, looked up) above
Sequence of Cytochrome P450 2C19 (P33261 whole entry): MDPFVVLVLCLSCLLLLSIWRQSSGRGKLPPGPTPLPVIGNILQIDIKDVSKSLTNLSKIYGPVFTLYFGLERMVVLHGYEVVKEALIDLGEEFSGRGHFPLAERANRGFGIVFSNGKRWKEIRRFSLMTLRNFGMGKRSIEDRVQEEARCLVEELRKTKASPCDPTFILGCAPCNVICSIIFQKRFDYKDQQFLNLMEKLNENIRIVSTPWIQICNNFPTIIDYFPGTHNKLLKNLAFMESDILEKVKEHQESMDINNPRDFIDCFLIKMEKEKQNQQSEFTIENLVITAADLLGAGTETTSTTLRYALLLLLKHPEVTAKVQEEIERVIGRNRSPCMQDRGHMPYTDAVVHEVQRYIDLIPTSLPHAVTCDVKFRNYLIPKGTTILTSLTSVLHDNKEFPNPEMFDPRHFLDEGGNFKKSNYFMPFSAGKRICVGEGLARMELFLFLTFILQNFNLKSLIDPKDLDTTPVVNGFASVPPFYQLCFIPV
Sequence of Tyrosine-protein kinase Yes (P07947 whole entry): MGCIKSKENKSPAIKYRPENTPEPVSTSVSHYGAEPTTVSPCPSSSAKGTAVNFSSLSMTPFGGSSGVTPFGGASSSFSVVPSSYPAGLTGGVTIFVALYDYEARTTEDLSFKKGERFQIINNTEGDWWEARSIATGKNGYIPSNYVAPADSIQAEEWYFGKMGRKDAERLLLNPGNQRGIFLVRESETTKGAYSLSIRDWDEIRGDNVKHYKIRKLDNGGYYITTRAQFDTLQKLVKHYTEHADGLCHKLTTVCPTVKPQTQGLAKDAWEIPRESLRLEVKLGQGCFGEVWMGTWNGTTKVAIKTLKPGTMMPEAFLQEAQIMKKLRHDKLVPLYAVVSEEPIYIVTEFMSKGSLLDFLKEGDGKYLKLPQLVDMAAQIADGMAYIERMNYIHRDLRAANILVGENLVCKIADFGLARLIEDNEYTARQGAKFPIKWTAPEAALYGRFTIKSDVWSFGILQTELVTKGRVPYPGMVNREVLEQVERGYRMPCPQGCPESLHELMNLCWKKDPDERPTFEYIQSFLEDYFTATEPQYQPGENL
Sequence of Cytochrome P450 2C9 (P11712 whole entry): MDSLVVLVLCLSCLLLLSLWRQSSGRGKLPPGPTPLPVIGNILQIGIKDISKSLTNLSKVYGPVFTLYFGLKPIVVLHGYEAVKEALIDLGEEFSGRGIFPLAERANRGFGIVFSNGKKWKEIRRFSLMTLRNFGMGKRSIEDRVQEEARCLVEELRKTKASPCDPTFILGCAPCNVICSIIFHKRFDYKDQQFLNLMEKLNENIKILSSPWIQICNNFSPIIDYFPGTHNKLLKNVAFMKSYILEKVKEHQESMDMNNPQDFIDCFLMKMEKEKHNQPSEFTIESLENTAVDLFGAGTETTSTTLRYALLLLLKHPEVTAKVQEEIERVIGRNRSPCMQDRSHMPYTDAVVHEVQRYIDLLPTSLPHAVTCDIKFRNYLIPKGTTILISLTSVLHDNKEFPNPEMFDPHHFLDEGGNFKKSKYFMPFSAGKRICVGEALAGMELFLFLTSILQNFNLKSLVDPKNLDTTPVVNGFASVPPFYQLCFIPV
Sequence of Vascular endothelial growth factor receptor 3 (P35916 whole entry): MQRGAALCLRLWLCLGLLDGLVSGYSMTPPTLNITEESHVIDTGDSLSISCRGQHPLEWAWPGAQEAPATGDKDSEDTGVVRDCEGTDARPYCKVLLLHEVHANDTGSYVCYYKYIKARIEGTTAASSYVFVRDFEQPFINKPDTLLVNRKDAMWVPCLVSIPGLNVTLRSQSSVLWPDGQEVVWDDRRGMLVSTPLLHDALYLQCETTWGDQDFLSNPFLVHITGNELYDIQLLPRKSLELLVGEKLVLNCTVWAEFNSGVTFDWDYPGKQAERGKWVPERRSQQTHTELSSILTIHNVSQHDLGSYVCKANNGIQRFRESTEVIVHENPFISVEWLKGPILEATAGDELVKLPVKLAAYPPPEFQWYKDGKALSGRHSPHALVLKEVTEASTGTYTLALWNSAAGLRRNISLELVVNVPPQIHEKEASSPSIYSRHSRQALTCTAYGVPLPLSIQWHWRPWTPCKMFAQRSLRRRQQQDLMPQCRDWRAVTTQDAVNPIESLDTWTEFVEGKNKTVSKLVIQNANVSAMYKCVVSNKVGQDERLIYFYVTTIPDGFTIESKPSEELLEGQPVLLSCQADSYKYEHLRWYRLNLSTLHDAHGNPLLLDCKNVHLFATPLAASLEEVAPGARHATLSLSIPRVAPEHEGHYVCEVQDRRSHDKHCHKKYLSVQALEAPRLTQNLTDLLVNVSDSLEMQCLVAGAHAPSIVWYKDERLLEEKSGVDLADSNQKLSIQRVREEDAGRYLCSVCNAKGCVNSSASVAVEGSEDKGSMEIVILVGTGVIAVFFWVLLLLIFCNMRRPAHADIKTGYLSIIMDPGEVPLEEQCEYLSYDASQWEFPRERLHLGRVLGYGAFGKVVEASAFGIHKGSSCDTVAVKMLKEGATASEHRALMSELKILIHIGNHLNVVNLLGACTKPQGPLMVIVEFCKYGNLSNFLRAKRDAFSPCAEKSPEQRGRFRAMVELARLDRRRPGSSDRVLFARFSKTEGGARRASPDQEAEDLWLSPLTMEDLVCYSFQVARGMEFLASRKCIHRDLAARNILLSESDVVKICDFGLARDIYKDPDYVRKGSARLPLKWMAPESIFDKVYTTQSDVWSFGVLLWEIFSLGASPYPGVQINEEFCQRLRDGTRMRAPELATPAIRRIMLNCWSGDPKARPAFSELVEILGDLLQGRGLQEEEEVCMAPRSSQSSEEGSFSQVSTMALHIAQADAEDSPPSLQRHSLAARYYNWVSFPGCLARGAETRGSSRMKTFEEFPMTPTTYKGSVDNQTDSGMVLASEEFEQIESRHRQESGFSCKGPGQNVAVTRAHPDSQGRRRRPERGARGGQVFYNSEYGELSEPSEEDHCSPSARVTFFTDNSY
Sequence of Glycogen synthase kinase-3 beta (P49841 whole entry): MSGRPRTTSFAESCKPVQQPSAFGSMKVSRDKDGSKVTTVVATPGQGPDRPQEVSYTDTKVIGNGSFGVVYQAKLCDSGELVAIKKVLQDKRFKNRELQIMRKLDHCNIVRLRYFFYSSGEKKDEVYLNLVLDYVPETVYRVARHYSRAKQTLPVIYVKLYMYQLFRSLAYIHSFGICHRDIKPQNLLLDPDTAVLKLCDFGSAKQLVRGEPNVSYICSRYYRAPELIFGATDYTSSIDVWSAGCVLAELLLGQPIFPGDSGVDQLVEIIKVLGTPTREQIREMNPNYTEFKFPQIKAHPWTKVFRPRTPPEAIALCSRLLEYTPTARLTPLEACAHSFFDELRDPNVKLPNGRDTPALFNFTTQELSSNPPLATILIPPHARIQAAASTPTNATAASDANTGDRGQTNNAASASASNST

CC(=O)Nc1c[nH]nc1-c1nc2ccccc2[nH]1 showed an IC50 [1] of 70 nM, an IC50 [2] of 3200 nM and an IC50 [3] of 510 nM. The IC50 [4] was 990 nM.
For O=C(Nc1c[nH]nc1-c1nc2ccccc2[nH]1)c1ccccc1, the Activity [5] was 3 µM, the IC50 [2] was 230 nM and the IC50 [3] was 180 nM.
O=C(Nc1cccnc1)Nc1c[nH]nc1-c1nc2cc(CN3CCOCC3)ccc2[nH]1 gave an Activity [5] of 1 µM, an IC50 [1] of 13 nM and an IC50 [2] of 290 nM. The IC50 [3] was 24 nM and the IC50 [4] was 160 nM.
For O=C(Nc1c[nH]nc1-c1nc2ccc(CN3CCOCC3)cc2[nH]1)NC1CC1 [AT-9283], the IC50 [6] was 1 nM, the half-life [7] was 2.5 h and the Vd [8] was 3.9 L/kg. For the same compound, the IC50 [9] was greater than 10000 nM, the IC50 [10] was greater than 10000 nM and the IC50 [11] was 10 nM. For the same compound, the logD [12] was 2.1, the solubility [13] was 13000 µg/mL (≈ 34.1 mM) and the solubility [14] was 2000 µg/mL (≈ 5.24 mM). For the same compound, the bioavailability [15] was 24%, the Cmax [16] was 0.45 µM and the AUC(0-t) [17] was 7.7 µM·h. It also gave an IC50 [18] greater than 10000 nM, an AUC(0-t) [19] of 0.91 µM·h and an IC50 [20] of 1 nM. It also gave an AUC(0-t) [21] of 1.9 µM·h, a Cmax [22] of 8.4 µM and a half-life [23] of 0.5 h. It also gave a Cmax [24] of 4.9 µM, an IC50 [25] greater than 10000 nM and an IC50 [26] of 12 nM. The bioavailability [27] was 100%, the clearance [28] was 114 mL/min/kg and the IC50 [29] was 1 nM.
With O=C(Nc1c[nH]nc1-c1nc2cc(CN3CCOCC3)ccc2[nH]1)Nc1c(F)cccc1F the fraction unbound [30] was 0.169, the Activity [5] was 0.03 µM and the IC50 [1] was 1.5 nM. The logD [12] was 3.1, the IC50 [2] was 290 nM and the IC50 [3] was 2.6 nM. The IC50 [4] was 160 nM and the IC50 [26] was 17 nM.
With O=C(Nc1c[nH]nc1-c1nc2cc(CN3CCOCC3)ccc2[nH]1)NC1CCCCC1 the Activity [5] was 0.1 µM, the IC50 [1] was 5.7 nM and the IC50 [2] was 2900 nM. It also gave an IC50 [3] of 5.2 nM and an IC50 [4] of 1200 nM.
With O=C(Nc1ccccc1)Nc1c[nH]nc1-c1nc2cc(CN3CCOCC3)ccc2[nH]1 the fraction unbound [30] was 0.047, the Activity [5] was 0.3 µM and the IC50 [2] was 5500 nM. It also gave an IC50 [3] of 54 nM and an IC50 [4] of 1800 nM.
Work on O=C(Nc1c[nH]nc1-c1nc2ccc(CN3CCOCC3)cc2[nH]1)c1ccc(F)cc1 yielded a bioavailability [31] of 26%, a fraction unbound [30] of 0.005 and an Activity [5] of 0.3 µM. It also gave a clearance [32] of 43 mL/min/kg, an IC50 [2] of 1500 nM and an IC50 [3] of 75 nM. The IC50 [4] was 530 nM.
In the case of Cl.O=C(Nc1c[nH]nc1-c1nc2cc(CN3CCOCC3)ccc2[nH]1)NC1CC1, the T/C [33] is reported as 33%, the Activity [34] is reported as “Non-toxic” and the T/C [35] is reported as 24%. The Activity [36] was “Non-toxic”.
O=C(Nc1ccccc1F)Nc1c[nH]nc1-c1nc2cc(CN3CCOCC3)ccc2[nH]1 showed an Activity [5] of 0.1 µM, an IC50 [1] of 2.8 nM and an IC50 [2] of 1100 nM. For the same compound, the IC50 [3] was 10 nM and the IC50 [4] was 230 nM.
Work on c1ccc2[nH]c(-c3cc[nH]n3)nc2c1 yielded an inhibition [37] of 49%, an IC50 [3] of 6500 nM and an IC50 [4] of 28000 nM.
For Cc1cc(Nc2cc(N3CCN(C)CC3)nc(Sc3ccc(NC(=O)C4CC4)cc3)n2)n[nH]1 [TOZASERTIB], the Activity [5] was 0.03 µM and the IC50 [26] was 24 nM.
In the case of O=C(Nc1c[nH]nc1-c1nc2cc(CN3CCOCC3)ccc2[nH]1)NC1CCOCC1, the Activity [5] is reported as 1 µM, the IC50 [1] is reported as 26 nM and the IC50 [2] is reported as 17000 nM. For the same compound, the IC50 [3] was 10 nM.
In the case of O=C(Nc1c[nH]nc1-c1nc2cc(CN3CCOCC3)ccc2[nH]1)c1ccccc1, the Activity [5] is reported as 0.1 µM, the IC50 [1] is reported as 3.5 nM and the IC50 [2] is reported as 340 nM. The IC50 [3] was 15 nM and the IC50 [4] was 140 nM.
